The results in this text go back to patent US12084472B2 (Ardelyx, Inc., priority 2015, dated 2024).

In the assay the target is T1, human TGR5 (Homo sapiens, UniProt Q8TDU6).
T1 construct: expressed in transfected cells; host or cells: HEK293
T1 sequence (Q8TDU6 1-330): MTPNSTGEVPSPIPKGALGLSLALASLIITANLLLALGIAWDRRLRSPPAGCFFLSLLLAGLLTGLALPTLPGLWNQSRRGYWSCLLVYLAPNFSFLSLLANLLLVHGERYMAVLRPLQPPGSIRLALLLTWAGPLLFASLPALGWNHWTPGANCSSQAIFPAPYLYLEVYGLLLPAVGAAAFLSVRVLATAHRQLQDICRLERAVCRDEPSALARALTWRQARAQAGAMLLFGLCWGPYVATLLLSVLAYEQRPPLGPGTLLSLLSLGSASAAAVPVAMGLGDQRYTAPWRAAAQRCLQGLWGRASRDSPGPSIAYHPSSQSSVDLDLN
Description: Cell-based TGR5 assay (cAMP generation, HTRF). The settings on record: HEK293 cells stably transfected with human TGR5; cAMP by HTRF; 30 minutes at 37° C.; read-out: pEC50 Human TGR5 (converted). Summed up: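 Read-out was HTRF detection of cAMP, converted to concentration via a standard curve and fitted (3-parameter logistic) for pEC50 and maximal response. Agonist stimulation used HEK293 cells stably transfected with human TGR5, incubated 30 min at 37° C in IBMX-containing buffer at 0.05 nM to 10 μM compound.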
For orientation: In TR-FRET formats the signal depends on donor and acceptor labels being close together.
Consider `O=C(NC[C@H](O)[C@@H](O)[C@H](O)[C@H](O)CO)[C@H]1[C@@H]2CN(S(=O)(=O)c3ccc(Cl)c(COC4(c5cnccc5-c5ccccc5OC5CC5)CC4)c3)C[C@@H]21` [Compound I-435, (1R,5S,6S)-3-[4-chloro-3-({1-[4-(2-cyclopropoxyphenyl)pyridin-3-yl]cyclopropoxy}methyl)benzenesulfonyl]-N-[(2S,3R,4R,5R)-2,3,4,5,6-pentahydroxyhexyl]-3-azabicyclo[3.1.0]hexane-6-carboxamide], for which the EC50 was under 0.1 µM. Regarding `O=C(NC[C@H](O)[C@@H](O)[C@H](O)[C@H](O)CO)[C@H]1CC[C@H](CNS(=O)(=O)c2ccc(Cl)c(COC3(c4cnccc4-c4ccccc4OC4CC4)CC3)c2)CC1` [Compound I-436, (1r,4r)-4-[4-chloro-3-({1-[4-(2-cyclopropoxyphenyl)pyridin-3-yl]cyclopropoxy}methyl)benzenesulfonamidomethyl]-N-[(2S,3R,4R,5R)-2,3,4,5,6-pentahydroxyhexyl]cyclohexane-1-carboxamide], the EC50 was under 0.1 µM. Regarding `O=C(NC[C@H](O)[C@@H](O)[C@H](O)[C@H](O)CO)C1CCN(S(=O)(=O)c2ccc(Cl)c(COC3(c4cnccc4-c4ccccc4OC4CC4)CC3)c2)CC1` [Compound I-437, 1-[4-chloro-3-({1-[4-(2-cyclopropoxyphenyl)pyridin-3-yl]cyclopropoxy}methyl)benzenesulfonyl]-N-[(2S,3R,4R,5R)-2,3,4,5,6-pentahydroxyhexyl]piperidine-4-carboxamide], the EC50 was under 0.1 µM. `O=C(CC1CN(S(=O)(=O)c2ccc(Cl)c(COC3(c4cnccc4-c4ccccc4OC4CC4)CC3)c2)C1)NC[C@H](O)[C@@H](O)[C@H](O)[C@H](O)CO` [Compound I-438, 2-{1-[4-chloro-3-({1-[4-(2-cyclopropoxyphenyl)pyridin-3-yl]cyclopropoxy}methyl)benzenesulfonyl]azetidin-3-yl}-N-[(2S,3R,4R,5R)-2,3,4,5,6-pentahydroxyhexyl]acetamide]: the EC50 was under 0.1 µM. Consider `O=C(NC[C@H](O)[C@@H](O)[C@H](O)[C@H](O)CO)C1CCC(NS(=O)(=O)c2ccc(Cl)c(COC3(c4cnccc4-c4ccccc4OC4CC4)CC3)c2)C1` (stereo partly drawn) [Compound I-439, 3-[4-chloro-3-({1-[4-(2-cyclopropoxyphenyl)pyridin-3-yl]cyclopropoxy}methyl)benzenesulfonamido]-N-[(2S,3R,4R,5R)-2,3,4,5,6-pentahydroxyhexyl]cyclopentane-1-carboxamide], for which the EC50 was under 0.1 µM.

In the case of `O=C(CN1CCN(S(=O)(=O)c2ccc(Cl)c(COC3(c4cnccc4-c4ccccc4OC4CC4)CC3)c2)CC1)NC[C@H](O)[C@@H](O)[C@H](O)[C@H](O)CO` [Compound I-440, 2-{4-[4-chloro-3-({1-[4-(2-cyclopropoxyphenyl)pyridin-3-yl]cyclopropoxy}methyl)benzenesulfonyl]piperazin-1-yl}-N-[(2S,3R,4R,5R)-2,3,4,5,6-pentahydroxyhexyl]acetamide], the EC50 was 0.126 to 1 µM. In the case of `O=C(CC1CCN(S(=O)(=O)c2ccc(Cl)c(COC3(c4cnccc4-c4ccccc4OC4CC4)CC3)c2)CC1)NC[C@H](O)[C@@H](O)[C@H](O)[C@H](O)CO` [Compound I-441, 2-{1-[4-chloro-3-({1-[4-(2-cyclopropoxyphenyl)pyridin-3-yl]cyclopropoxy}methyl)benzenesulfonyl]piperidin-4-yl}-N-[(2S,3R,4R,5R)-2,3,4,5,6-pentahydroxyhexyl]acetamide], the EC50 was 0.126 to 1 µM. Consider `O=C(NC[C@H](O)[C@@H](O)[C@H](O)[C@H](O)CO)[C@H]1CC[C@H](NS(=O)(=O)c2ccc(Cl)c(COC3(c4cnccc4-c4ccccc4OC4CC4)CC3)c2)CC1` [Compound I-442, (1r,4r)-4-[4-chloro-3-({1-[4-(2-cyclopropoxyphenyl)pyridin-3-yl]cyclopropoxy}methyl)benzenesulfonamido]-N-[(2S,3R,4R,5R)-2,3,4,5,6-pentahydroxyhexyl]cyclohexane-1-carboxamide], for which the EC50 was under 0.1 µM. In the case of `O=C(CCN1CCN(S(=O)(=O)c2ccc(Cl)c(COC3(c4cnccc4-c4ccccc4OC4CC4)CC3)c2)CC1)NC[C@H](O)[C@@H](O)[C@H](O)[C@H](O)CO` [Compound I-443, 3-{4-[4-chloro-3-({1-[4-(2-cyclopropoxyphenyl)pyridin-3-yl]cyclopropoxy}methyl)benzenesulfonyl]piperazin-1-yl}-N-[(2S,3R,4R,5R)-2,3,4,5,6-pentahydroxyhexyl]propanamide], the EC50 was 0.126 to 1 µM. As to `O=C(COC1CCN(S(=O)(=O)c2ccc(Cl)c(COC3(c4cnccc4-c4ccccc4OC4CC4)CC3)c2)CC1)NC[C@H](O)[C@@H](O)[C@H](O)[C@H](O)CO` [Compound I-444, 2-({1-[4-chloro-3-({1-[4-(2-cyclopropoxyphenyl)pyridin-3-yl]cyclopropoxy}methyl)benzenesulfonyl]piperidin-4-yl}oxy)-N-[(2S,3R,4R,5R)-2,3,4,5,6-pentahydroxyhexyl]acetamide], the EC50 is under 0.1 µM. For `O=C(NC[C@H](O)[C@@H](O)[C@H](O)[C@H](O)CO)C12CCC(NS(=O)(=O)c3ccc(Cl)c(COC4(c5cnccc5-c5ccccc5OC5CC5)CC4)c3)(CC1)CC2` [Compound I-445, 4-[4-chloro-3-({1-[4-(2-cyclopropoxyphenyl)pyridin-3-yl]cyclopropoxy}methyl)benzenesulfonamido]-N-[(2S,3R,4R,5R)-2,3,4,5,6-pentahydroxyhexyl]bicyclo[2.2.2]octane-1-carboxamide], the EC50 is 0.126 to 1 µM.

Take `O=C(/C=C/C1CN(S(=O)(=O)c2ccc(Cl)c(COC3(c4cnccc4-c4ccccc4OC4CC4)CC3)c2)C1)NC[C@H](O)[C@@H](O)[C@H](O)[C@H](O)CO` [Compound I-446, (2E)-3-{1-[4-chloro-3-({1-[4-(2-cyclopropoxyphenyl)pyridin-3-yl]cyclopropoxy}methyl)benzenesulfonyl]azetidin-3-yl}-N-[(2S,3R,4R,5R)-2,3,4,5,6-pentahydroxyhexyl]prop-2-enamide]: the EC50 is under 0.1 µM. `CN(C[C@H](O)[C@@H](O)[C@H](O)[C@H](O)CO)C(=O)CC1CN(S(=O)(=O)c2ccc(Cl)c(COC3(c4cnccc4-c4ccccc4OC4CC4)CC3)c2)C1` [Compound I-447, 2-{1-[4-chloro-3-({1-[4-(2-cyclopropoxyphenyl)pyridin-3-yl]cyclopropoxy}methyl)benzenesulfonyl]azetidin-3-yl}-N-methyl-N-[(2S,3R,4R,5R)-2,3,4,5,6-pentahydroxyhexyl]acetamide]: the EC50 is under 0.1 µM. Turning to `O=C(CCC1CN(S(=O)(=O)c2ccc(Cl)c(COC3(c4cnccc4-c4ccccc4OC4CC4)CC3)c2)C1)NC[C@H](O)[C@@H](O)[C@H](O)[C@H](O)CO` [Compound I-448, 3-{1-[4-chloro-3-({1-[4-(2-cyclopropoxyphenyl)pyridin-3-yl]cyclopropoxy}methyl)benzenesulfonyl]azetidin-3-yl}-N-[(2S,3R,4R,5R)-2,3,4,5,6-pentahydroxyhexyl]propanamide], the EC50 is under 0.1 µM.

Consider `O=C(CCC1CCN(S(=O)(=O)c2ccc(Cl)c(COC3(c4cnccc4-c4ccccc4OC4CC4)CC3)c2)CC1)NC[C@H](O)[C@@H](O)[C@H](O)[C@H](O)CO` [Compound I-449, 3-{1-[4-chloro-3-({1-[4-(2-cyclopropoxyphenyl)pyridin-3-yl]cyclopropoxy}methyl)benzenesulfonyl]piperidin-4-yl}-N-[(2S,3R,4R,5R)-2,3,4,5,6-pentahydroxyhexyl]propanamide], for which the EC50 is under 0.1 µM. In the case of `O=C(/C=C/C1CCN(S(=O)(=O)c2ccc(Cl)c(COC3(c4cnccc4-c4ccccc4OC4CC4)CC3)c2)C1)NC[C@H](O)[C@@H](O)[C@H](O)[C@H](O)CO` (stereo partly drawn) [Compound I-450, (2E)-3-{1-[4-chloro-3-({1-[4-(2-cyclopropoxyphenyl)pyridin-3-yl]cyclopropoxy}methyl)benzenesulfonyl]pyrrolidin-3-yl}-N-[(2S,3R,4R,5R)-2,3,4,5,6-pentahydroxyhexyl]prop-2-enamide], the EC50 was under 0.1 µM. In the case of `O=C(CCC1CCN(S(=O)(=O)c2ccc(Cl)c(COC3(c4cnccc4-c4ccccc4OC4CC4)CC3)c2)C1)NC[C@H](O)[C@@H](O)[C@H](O)[C@H](O)CO` (stereo partly drawn) [Compound I-451, 3-{1-[4-chloro-3-({-[4-(2-cyclopropoxyphenyl)pyridin-3-yl]cyclopropoxy}methyl)benzenesulfonyl]pyrrolidin-3-yl}-N-[(2S,3R,4R,5R)-2,3,4,5,6-pentahydroxyhexyl]propanamide], the EC50 was under 0.1 µM. Turning to `O=C(/C=C/CC1CN(S(=O)(=O)c2ccc(Cl)c(COC3(c4cnccc4-c4ccccc4OC4CC4)CC3)c2)C1)NC[C@H](O)[C@@H](O)[C@H](O)[C@H](O)CO` [Compound I-452, (2E)-4-{1-[4-chloro-3-({1-[4-(2-cyclopropoxyphenyl)pyridin-3-yl]cyclopropoxy}methyl)benzenesulfonyl]azetidin-3-yl}-N-[(2S,3R,4R,5R)-2,3,4,5,6-pentahydroxyhexyl]but-2-enamide], the EC50 is under 0.1 µM. With `O=C(CCCC1CN(S(=O)(=O)c2ccc(Cl)c(COC3(c4cnccc4-c4ccccc4OC4CC4)CC3)c2)C1)NC[C@H](O)[C@@H](O)[C@H](O)[C@H](O)CO` [Compound I-453, 4-{1-[4-chloro-3-({1-[4-(2-cyclopropoxyphenyl)pyridin-3-yl]cyclopropoxy}methyl)benzenesulfonyl]azetidin-3-yl}-N-[(2S,3R,4R,5R)-2,3,4,5,6-pentahydroxyhexyl]butanamide] the figure was under 0.1 µM.
